Results taken from patent publication US20260226006A1, “INDOLE COMPOUND, PREPARATION METHOD THEREFOR AND USE THEREOF” (SUZHOU MERNA THERAPEUTICS CO. LTD, priority 2023, published 2026).

Columns and labels:
[1] = tested on: paw plantar skin of rats; assay: Rat models with hand-foot skin reaction, topical ointment (Example 22); assay type: in vivo, SD rats; settings: for Incidence rate (successful modeling rate for hand-foot skin reaction): modeling drug alone by gavage once daily, no ointment, SD rats, 30 days
Experimental: After adaptive feeding for one week, SD rats (with a body weight of approximately 200 g) were randomly divided into groups according to the body weight, with 12 rats in each group. Modeling drugs (including sorafenib, erlotinib, afatinib, and osimertinib) were respectively dissolved in a solution containing 5% of DMSO, 45% of PEG400, and 50% of H2O, and the modeling drugs were diluted to required concentrations and then administered once daily by gavage at doses shown in Table 3. After administration by gavage for 1 hour, 0.05 g of ointments containing different mass proportions of test compounds were evenly applied to left paws of the rats, a blank matrix ointment was applied to right paws of the rats to serve as a self-control, and no ointment was applied to the rats in a blank control group. After drug application, four limbs were continuously immobilized for 2 hours, then wiped with clean water to remove the residual drugs, removed from immobilization, and restored to free movement. The modeling drugs, the blank matrix ointment, and the ointments containing the test compounds were all administered once daily. After continuous administration for 30 days, the rats were euthanized, and paw plantar skin tissues were collected, fixed in 10% neutral formalin, […]. The ointments for the test compounds were prepared by mixing the compounds, white beeswax, white petrolatum, and light liquid paraffin in specific ratios (weight ratios of 3 ointments were respectively 1:18:58:23, 3:18:57:22, and 10:20:40:30). The blank matrix ointment was prepared by mixing white beeswax, white petrolatum, and light liquid paraffin in a specific ratio (weight ratio of 18:60:22).
Tissue staining: After dewaxing and rehydration, the paw plantar skin tissue sections of the above rats were stained in a hematoxylin solution for several minutes, cleaned, and placed in 1% acid alcohol for soaking until the sections faded to light blue-red. After cleaning with running water for 5 minutes, the sections were stained with eosin for 2-3 minutes, cleaned to remove excess dyes, dehydrated, then permeabilized by adding xylene for several minutes, and sealed and fixed with a neutral resin. The stratum corneum was observed under an optical microscope, and the thickness of the epidermal stratum corneum was measured using Dmetrix software.
Immunohistochemical staining: After dewaxing and hydration, the paw plantar skin tissue sections of the above rats were incubated with 3% H2O2 at room temperature for 30 minutes and blocked with 10% goat serum for 30 minutes after antigen retrieval. A KRT1 antibody (Abcam, ab93652) and a Loricrin antibody (Abcam, ab183646) were added dropwise, the sections were incubated overnight at 4° C., and an HRP secondary antibody (ZSGB-BIO, PV-6001) and a DAB kit (ZSG-BIO, ZLI9017) were added for color development. The sections were re-stained with hematoxylin, cleaned, and sealed and fixed with a neutral resin, and the expression amounts of KRT1 and Loricrin were observed under an optical microscope.
An incidence rate calculation method involves a proportion of animals in each group meeting the above criteria for determining successful modeling, that is, incidence rate=(number of successfully modeled rats/total number of rats in the group)*100%. […]

[2] = tested on: HaCat cells; assay: m6A methylation level of human HaCat keratinocytes, EpiQuik m6A RNA methylation quantification kit (Example 20); assay type: cell-based; settings: HaCat cells, 24 hours
Experimental: HaCat cells were cultured in a DMEM culture medium containing 10% fetal bovine serum, 100 U/mL penicillin, and 100 μg/mL streptomycin. Culture dishes were placed in an incubator containing 5% CO2 for culture at 37° C. for 24 hours. An equal volume of DMSO was added in control group 1, 50 nM sorafenib, capecitabine, docetaxel, and osimertinib were respectively added in control groups A, B, C, and D, and 400 nM test compounds or nicotinamide were respectively added in sample groups A1-17, B1-17, C1-17, and D1-17 after the addition of 50 nM corresponding compounds. The cells were continuously cultured for 24 hours, washed with PBS, and then collected by high-speed centrifugation. Total RNA was extracted using a Trizol reagent (Sigma Aldrich), and RNA m6A methylation of a sample was quantitatively detected using an EpiQuik m6A RNA methylation quantification kit. The concentrations of positive control samples for a standard curve were 0.01 ng/μl, 0.02 ng/μl, 0.05 ng/μl, 0.1 ng/μl, 0.2 ng/μl, and 0.5 ng/μl. The absorbance at 450 nm was read using a microplate reader (Tecan GENios). A quantitative calculation formula for m6A is as follows:
m6A (ng)=(absorbance of sample well−absorbance of background well)/slope of standard curve m6A (%)=m6A (ng)/RNA amount of sample (ng)*100%.

[3] = tested on: HaCaT keratinocytes; assay: Inhibition of HBEGF-induced differentiation of HaCaT keratinocytes, marker mRNA by RT-PCR (Example 21); assay type: cell-based, human; settings: 2.5 ng/mL human recombinant HBEGF protein + test compound, 24 hours
Experimental: Human HaCaT keratinocytes were cultured in a DMEM culture medium containing 10% fetal bovine serum, 100 U/mL penicillin, and 100 µg/mL streptomycin. The cells were seeded into a 96-well plate at a density of […] and placed in an incubator containing 5% carbon dioxide for culture at 37° C. for 24 hours. An equal volume of DMSO was added into control well 1, a 2.5 ng/mL human recombinant HBEGF protein (Abcam, ab205523) was added into control well 2, and a 2.5 ng/mL human recombinant HBEGF protein and corresponding concentrations of test compounds were added into sample wells. The cells were continuously cultured for 24 hours, washed with PBS, and then collected by high-speed centrifugation. Total RNA was extracted using a Trizol reagent (Sigma Aldrich). 1 μg of RNA was reverse-transcribed into cDNA using a cDNA reverse transcription kit (Transgene Biotech, AT311-03). 1.25 μL of a primer (with a primer sequence shown in Table 2), 10 μL of an iTag Universal SYBR Green supermix (Bio-Rad, 172-S125), and an appropriate amount of DEPC ultrapure water were added to formulate 20 μL of a reaction solution to perform an RT-PCR reaction. Upon completion of the reaction, the reaction solution was subjected to agarose gel electrophoresis to determine the mRNA expression amounts of keratinocyte differentiation markers KRT1, KRT10, Loricrin, and Involucrin.

[4] = successfully modeled rats, modeling drug
[5] = 50 nM capecitabine + 400 nM test compound
[6] = 50 nM docetaxel + 400 nM test compound
[7] = 50 nM osimertinib + 400 nM test compound
[8] = 50 nM sorafenib + 400 nM test compound

| KRT1 and Loricrin in tissues (immunohistochemical staining) [1, 4] | KRT1 and Loricrin in tissues (immunohistochemical staining) ([1]; rat, in vivo) | Compound | Incidence rate (successful modeling rate for hand-foot skin reaction) [1] | Incidence rate (successful modeling rate for hand-foot skin reaction) ([1]; listed as afatinib) | stratum corneum thickness of the paw plantar skin [1, 4] | m6A fold change relative to control group 1 [2, 5] | m6A fold change relative to control group 1 [2, 6] | m6A fold change relative to control group 1 [2, 7] | m6A fold change relative to control group 1 [2, 8] | mRNA expression amounts of HaCaT differentiation markers KRT1, KRT10, Loricrin, and Involucrin [3] | stratum corneum thickness of the paw plantar skin ([1]; rat, in vivo) |
| --- | --- | --- | --- | --- | --- | --- | --- | --- | --- | --- | --- |
| significantly increased | – | CN(C)C/C=C/C(=O)Nc1cc2c(Nc3ccc(F)c(Cl)c3)ncnc2cc1O[C@H]1CCOC1 [Afatinib, afatinib, reference compound] | 8/12 (66.7%) | 66.7% | significantly higher than that of normal rats | – | – | – | – | – | – |
| – | – | CC1CCC(C(N)=O)c2[nH]c3ccc(Cl)cc3c21 (centres unmarked) [Compound 6, 6-chloro-4-methyl-2,3,4,9-tetrahydro-1H-carbazole-1-carboxamide] | – | – | – | 3.2 | 5.1 | 3.5 | 3.4 | – | – |
| – | – | NC(=O)C1CCCc2c1[nH]c1cc(Nc3ccccc3)c(Cl)cc21 (centres unmarked) [Compound 9, 6-chloro-7-phenylamino-2,3,4,9-tetrahydro-1H-carbazole-1-carboxamide] | – | – | – | 3.9 | 3.9 | 4.0 | 3.5 | – | – |
| – | – | CN1CC[C@@H](C(N)=O)c2[nH]c3ccc(Cl)cc3c21 [Compound 8a, (R)-8-chloro-1-methyl-2,3,4,5-tetrahydropyrido[3,2-b]indole-4-carboxamide] | – | – | – | 2.4 | 4.8 | 3.2 | 4.0 | – | – |
| – | – | NC(=O)C1c2[nH]c3ccc(Cl)cc3c2C2CCC1C2 [Compound 5b, (R)-2-chloro-5,6,7,8,9,10-hexahydro-7,10-methanocyclohepta[b]indole-6-carboxamide] | – | – | – | 4.8 | 4.8 | 5.0 | 3.8 | – | – |
| – | – | NC(=O)C1CCCc2c1[nH]c1cc(F)c(Cl)c(F)c21 (centres unmarked) [Compound 4, 6-chloro-5,7-difluoro-2,3,4,9-tetrahydro-1H-carbazole-1-carboxamide] | – | – | – | 3.2 | 5.1 | 4.2 | 3.6 | – | – |
| – | – | NC(=O)C1CCC(F)c2c1[nH]c1ccc(Cl)cc21 (centres unmarked) [Compound 7, 6-chloro-4-fluoro-2,3,4,9-tetrahydro-1H-carbazole-1-carboxamide] | – | – | – | 3.9 | 3.4 | 2.9 | 3.3 | – | – |
| – | – | NC(=O)C1CCCc2c1[nH]c1ccc(Cl)c(F)c21 (centres unmarked) [Compound 3a, 6-chloro-5-fluoro-2,3,4,9-tetrahydro-1H-carbazole-1-carboxamide] | – | – | – | 2.8 | 4.2 | 2.9 | 3.3 | significantly inhibited | – |
| – | – | NC(=O)C1CCCc2c1[nH]c1ccc(F)cc21 (centres unmarked) [Compound 1, 6-fluoro-2,3,4,9-tetrahydro-1H-carbazole-1-carboxamide] | – | – | – | 3.0 | 3.2 | 3.4 | 2.9 | – | – |
| – | – | NC(=O)C1c2[nH]c3ccc(Cl)cc3c2C2CCC1C2 (centres unmarked) [Compound 5, 2-chloro-5,6,7,8,9,10-hexahydro-7,10-methanocyclohepta[b]indole-6-carboxamide] | – | – | – | 3.0 | 2.9 | 3.1 | 2.4 | – | – |
| – | – | NC(=O)[C@@H]1CCCc2c1[nH]c1ccc(Cl)cc21 [Compound 2a, (R)-6-chloro-2,3,4,9-tetrahydro-1H-carbazole-1-carboxamide] | – | – | – | 3.5 | 5.6 | 3.2 | 3.4 | – | – |
| – | significantly increased | C#Cc1cccc(Nc2ncnc3cc(OCCOC)c(OCCOC)cc23)c1 [Erlotinib, erlotinib, reference compound] | – | – | – | – | – | – | – | – | significantly higher than that of normal rats |
| – | – | CN1CCC(C(N)=O)c2[nH]c3ccc(Cl)cc3c21 (centres unmarked) [Compound 8, 8-chloro-1-methyl-2,3,4,5-tetrahydropyrido[3,2-b]indole-4-carboxamide] | – | – | – | 1.7 | 3.0 | 2.1 | 2.5 | – | – |
| – | – | NC(=O)C1CCCc2c1[nH]c1cc(F)c(Cl)cc21 (centres unmarked) [Compound 3b, 6-chloro-7-fluoro-2,3,4,9-tetrahydro-1H-carbazole-1-carboxamide] | – | – | – | 2.9 | 3.2 | 3.1 | 3.3 | significantly inhibited | – |
